From patent publication US7138361B2, “Herbicidal heterocycles” (E. I. du Pont de Nemours and Company, priority 2000, dated 2006)

What was measured:
Type in all cases: in vivo
[1] = tested on: wheat (Triticum aestivum); test: Test B postemergence; conditions: 13 to 15 days
How it was run: (§1)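 Preemergence: seeds planted and treated with test chemicals in non-phytotoxic solvent with surfactant; postemergence on plants 2–18 cm (1- to 4-leaf stage). Kept in greenhouse 13–15 days, then visually rated against controls on a 0 (no effect) to 100 (complete control) scale.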

[2] = tested on: lambsquarters (Chenopodium album); test: Test B postemergence; conditions: 13 to 15 days
How it was run: as §1

[3] = tested on: blackgrass (Alopecurus myosuroides); test: Test B postemergence; conditions: 13 to 15 days
How it was run: as §1

[4] = tested on: corn (Zea mays); test: Test B postemergence; conditions: 13 to 15 days
How it was run: as §1

[5] = tested on: cocklebur (Xanthium strumarium); test: Test B postemergence; conditions: 13 to 15 days
How it was run: as §1

[6] = tested on: barnyardgrass (Echinochloa crus-galli); test: Test B postemergence; conditions: 13 to 15 days
How it was run: as §1

[7] = tested on: crabgrass (Digitaria sanguinalis); test: Test B postemergence; conditions: 13 to 15 days
How it was run: as §1

[8] = tested on: velvetleaf (Abutilon theophrasti); test: Test B postemergence; conditions: 13 to 15 days
How it was run: as §1

[9] = tested on: pigweed (Amaranthus retroflexus); test: Test B postemergence; conditions: 13 to 15 days
How it was run: as §1

[10] = tested on: giant foxtail (Setaria faberii); test: Test B postemergence; conditions: 13 to 15 days
How it was run: as §1

[11] = tested on: wild oat (Avena fatua); test: Test B postemergence; conditions: 13 to 15 days
How it was run: as §1

[12] = tested on: morning glory (Ipomoea hederacea); test: Test B postemergence; conditions: 13 to 15 days
How it was run: as §1

[13] = tested on: Surinam grass (Brachiaria decumbens); test: Test B postemergence; conditions: 13 to 15 days
How it was run: as §1

[14] = tested on: smallflower flatsedge (Cyperus difformis); test: Test C flooded paddy test; conditions: for Flatsedge plant response rating: Flooded Paddy, scale 0 to 100, 0 no effect, 100 complete control; for Plant response rating, Flatsedge: flooded paddy test, scale 0 to 100 (0 no effect, 100 complete control)
How it was run: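 Plants were grown to the 2-leaf stage under flooded paddy conditions and treated. They were then kept in a greenhouse for 12 to 14 days and visually rated against untreated controls on a 0–100 scale, where 0 is no effect and 100 is complete control.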

[15] = tested on: Sunflower; test: Test C preemergence; conditions: Rate 250 g/ha, visual evaluation after 12 to 14 days
[16] = tested on: lambsquarters (Chenopodium album); test: Test B preemergence; conditions: scale 0 to 100, 0 no effect, 100 complete control
How it was run: as §1

[17] = tested on: corn (Zea mays); test: Test B preemergence; conditions: scale 0 to 100, 0 no effect, 100 complete control
How it was run: as §1

[18] = tested on: cocklebur (Xanthium strumarium); test: Test B preemergence; conditions: scale 0 to 100, 0 no effect, 100 complete control
How it was run: as §1

[19] = tested on: barnyardgrass (Echinochloa crus-galli); test: Test B preemergence; conditions: scale 0 to 100, 0 no effect, 100 complete control
How it was run: as §1

[20] = tested on: crabgrass (Digitaria sanguinalis); test: Test B preemergence; conditions: scale 0 to 100, 0 no effect, 100 complete control
How it was run: as §1

[21] = tested on: velvetleaf (Abutilon theophrasti); test: Test B preemergence; conditions: Preemergence, Rate 500 g/ha; scale 0 to 100, 0 no effect, 100 complete control
How it was run: as §1

[22] = tested on: pigweed (Amaranthus retroflexus); test: Test B preemergence; conditions: Preemergence, Rate 500 g/ha; scale 0 to 100, 0 no effect, 100 complete control
How it was run: as §1

[23] = tested on: giant foxtail (Setaria faberii); test: Test B preemergence; conditions: scale 0 to 100, 0 no effect, 100 complete control
How it was run: as §1

[24] = tested on: morning glory (Ipomoea hederacea); test: Test B preemergence; conditions: Preemergence, Rate 500 g/ha; scale 0 to 100, 0 no effect, 100 complete control
How it was run: as §1

[25] = tested on: rice (Oryza saliva); test: Test B preemergence; conditions: Preemergence, Rate 500 g/ha; scale 0 to 100, 0 no effect, 100 complete control
How it was run: as §1

[26] = tested on: Surinam grass (Brachiaria decumbens); test: Test B preemergence; conditions: scale 0 to 100, 0 no effect, 100 complete control
How it was run: as §1

[27] = tested on: Sunflower; test: Test C preemergence; conditions: Rate 125 g/ha, scale 0 to 100, 0 no effect, 100 complete control
[28] = Rate 125 g/ha, scale 0 (no effect) to 100 (complete control)
[29] = Rate 500 g/ha, scale 0 to 100, 0 is no effect, 100 is complete control

CC(C)c1ccn(C2SCN(c3cccc(OC(F)(F)F)c3)C2=O)n1 (stereo not shown) [Compound 31]
40: Plant response rating, Crabgrass [7, 29] | Plant response rating (0 to 100), Sunflower [15]
80: Plant response rating, Lambsquarters [2, 29]
30: Plant response rating, Morningglory [12, 29] | Plant response rating, Foxtail, Giant ([23]; preemergence, Rate 125 g/ha) | Plant response rating, Surinam grass ([26]; preemergence, Rate 125 g/ha) | Plant response rating, Sunflower [27]
10: Plant response rating, Morningglory [12, 28]
70: Plant response rating, Lambsquarters [2, 28] | Plant response rating, Cocklebur [5, 29] | Plant response rating, Surinam grass ([26]; Preemergence, Rate 500 g/ha)
60: Plant response rating, Cocklebur [5, 28] | Plant response rating, Pigweed [9, 29]
0: Plant response rating, Wheat [1, 28] | Plant response rating, Wheat [1, 29] | Plant response rating, Blackgrass [3, 28] | Plant response rating, Blackgrass [3, 29] | Plant response rating, Corn [4, 28] | Plant response rating, Corn [4, 29] | Plant response rating, Crabgrass [7, 28] | Plant response rating, Velvetleaf [8, 28] | Plant response rating, Velvetleaf [8, 29] | Plant response rating, Foxtail, Giant [10, 28] | Plant response rating, Wild Oat [11, 28] | Plant response rating, Wild Oat [11, 29] | Plant response rating, Surinam grass [13, 28] | Plant response rating, Surinam grass [13, 29] | Plant response rating, Corn ([17]; Preemergence, Rate 500 g/ha) | Plant response rating, Corn ([17]; preemergence, Rate 125 g/ha) | Plant response rating, Cocklebur ([18]; Preemergence, Rate 500 g/ha) | Plant response rating, Cocklebur ([18]; preemergence, Rate 125 g/ha) | Plant response rating, Velvetleaf [21] | Plant response rating, Morningglory [24] | Plant response rating, Rice [25]
100: Plant response rating, Barnyardgrass [6, 28] | Plant response rating, Barnyardgrass [6, 29] | Flatsedge plant response rating ([14]; Rate 250 g/ha) | Flatsedge plant response rating ([14]; Rate 500 g/ha) | Plant response rating, Flatsedge ([14]; Rate 62 g/ha) | Plant response rating, Flatsedge ([14]; Rate 125 g/ha) | Plant response rating, Lambsquarters ([16]; Preemergence, Rate 500 g/ha) | Plant response rating, Lambsquarters ([16]; preemergence, Rate 125 g/ha) | Plant response rating, Barnyardgrass ([19]; Preemergence, Rate 500 g/ha) | Plant response rating, Barnyardgrass ([19]; preemergence, Rate 125 g/ha) | Plant response rating, Crabgrass ([20]; Preemergence, Rate 500 g/ha) | Plant response rating, Crabgrass ([20]; preemergence, Rate 125 g/ha) | Plant response rating, Pigweed [22]
20: Plant response rating, Pigweed [9, 28] | Plant response rating, Foxtail, Giant [10, 29]
90: Plant response rating, Foxtail, Giant ([23]; Preemergence, Rate 500 g/ha)

CCC(C)c1ccn(C2SCN(c3cccc(OC(F)(F)F)c3)C2=O)n1 (stereo not shown) [Compound 32]
20: Plant response rating, Morningglory [12, 28] | Plant response rating, Morningglory [12, 29]
0: Plant response rating, Wheat [1, 28] | Plant response rating, Wheat [1, 29] | Plant response rating, Blackgrass [3, 28] | Plant response rating, Blackgrass [3, 29] | Plant response rating, Corn [4, 28] | Plant response rating, Corn [4, 29] | Plant response rating, Velvetleaf [8, 28] | Plant response rating, Velvetleaf [8, 29] | Plant response rating, Foxtail, Giant [10, 28] | Plant response rating, Wild Oat [11, 28] | Plant response rating, Wild Oat [11, 29] | Plant response rating, Surinam grass [13, 28] | Plant response rating, Corn ([17]; Preemergence, Rate 500 g/ha) | Plant response rating, Corn ([17]; preemergence, Rate 125 g/ha) | Plant response rating, Cocklebur ([18]; Preemergence, Rate 500 g/ha) | Plant response rating, Velvetleaf [21] | Plant response rating, Morningglory [24] | Plant response rating, Rice [25] | Plant response rating, Sunflower [27]
100: Plant response rating, Crabgrass [7, 29] | Flatsedge plant response rating ([14]; Rate 250 g/ha) | Flatsedge plant response rating ([14]; Rate 500 g/ha) | Plant response rating, Flatsedge ([14]; Rate 62 g/ha) | Plant response rating, Flatsedge ([14]; Rate 125 g/ha) | Plant response rating, Lambsquarters ([16]; Preemergence, Rate 500 g/ha) | Plant response rating, Lambsquarters ([16]; preemergence, Rate 125 g/ha) | Plant response rating, Barnyardgrass ([19]; Preemergence, Rate 500 g/ha) | Plant response rating, Crabgrass ([20]; Preemergence, Rate 500 g/ha) | Plant response rating, Pigweed [22] | Plant response rating, Foxtail, Giant ([23]; Preemergence, Rate 500 g/ha)
40: Plant response rating, Pigweed [9, 28] | Plant response rating, Surinam grass ([26]; preemergence, Rate 125 g/ha)
80: Plant response rating, Lambsquarters [2, 28] | Plant response rating, Barnyardgrass [6, 28] | Plant response rating, Crabgrass [7, 28] | Plant response rating, Barnyardgrass ([19]; preemergence, Rate 125 g/ha)
10: Plant response rating, Surinam grass [13, 29]
60: Plant response rating, Cocklebur [5, 28] | Plant response rating, Cocklebur [5, 29] | Plant response rating, Pigweed [9, 29] | Plant response rating, Foxtail, Giant [10, 29] | Plant response rating, Crabgrass ([20]; preemergence, Rate 125 g/ha) | Plant response rating, Surinam grass ([26]; Preemergence, Rate 500 g/ha)
90: Plant response rating, Lambsquarters [2, 29] | Plant response rating, Barnyardgrass [6, 29]
70: Plant response rating (0 to 100), Sunflower [15] | Plant response rating, Foxtail, Giant ([23]; preemergence, Rate 125 g/ha)

CC(C)(C)c1ccn(C2CCN(c3ccc(Cl)c(Cl)c3)C2=O)n1 (stereo not shown) [Compound 34]
20: Plant response rating, Lambsquarters ([16]; preemergence, Rate 125 g/ha) | Plant response rating, Surinam grass ([26]; Preemergence, Rate 500 g/ha)
60: Plant response rating, Barnyardgrass ([19]; Preemergence, Rate 500 g/ha)
0: Plant response rating, Wheat [1, 28] | Plant response rating, Wheat [1, 29] | Plant response rating, Blackgrass [3, 28] | Plant response rating, Blackgrass [3, 29] | Plant response rating, Corn [4, 28] | Plant response rating, Corn [4, 29] | Plant response rating, Cocklebur [5, 28] | Plant response rating, Cocklebur [5, 29] | Plant response rating, Barnyardgrass [6, 28] | Plant response rating, Barnyardgrass [6, 29] | Plant response rating, Crabgrass [7, 28] | Plant response rating, Crabgrass [7, 29] | Plant response rating, Velvetleaf [8, 28] | Plant response rating, Velvetleaf [8, 29] | Plant response rating, Foxtail, Giant [10, 28] | Plant response rating, Foxtail, Giant [10, 29] | Plant response rating, Wild Oat [11, 28] | Plant response rating, Wild Oat [11, 29] | Plant response rating, Morningglory [12, 28] | Plant response rating, Morningglory [12, 29] | Plant response rating, Surinam grass [13, 28] | Plant response rating, Surinam grass [13, 29] | Plant response rating (0 to 100), Sunflower [15] | Plant response rating, Corn ([17]; Preemergence, Rate 500 g/ha) | Plant response rating, Corn ([17]; preemergence, Rate 125 g/ha) | Plant response rating, Cocklebur ([18]; Preemergence, Rate 500 g/ha) | Plant response rating, Cocklebur ([18]; preemergence, Rate 125 g/ha) | Plant response rating, Barnyardgrass ([19]; preemergence, Rate 125 g/ha) | Plant response rating, Foxtail, Giant ([23]; preemergence, Rate 125 g/ha) | Plant response rating, Morningglory [24] | Plant response rating, Rice [25] | Plant response rating, Surinam grass ([26]; preemergence, Rate 125 g/ha) | Plant response rating, Sunflower [27]
70: Plant response rating, Flatsedge ([14]; Rate 62 g/ha) | Plant response rating, Foxtail, Giant ([23]; Preemergence, Rate 500 g/ha)
100: Plant response rating, Lambsquarters [2, 29] | Flatsedge plant response rating ([14]; Rate 500 g/ha) | Plant response rating, Lambsquarters ([16]; Preemergence, Rate 500 g/ha) | Plant response rating, Crabgrass ([20]; preemergence, Rate 125 g/ha) | Plant response rating, Velvetleaf [21] | Plant response rating, Pigweed [22]
90: Plant response rating, Lambsquarters [2, 28] | Plant response rating, Pigweed [9, 28] | Plant response rating, Pigweed [9, 29] | Flatsedge plant response rating ([14]; Rate 250 g/ha) | Plant response rating, Flatsedge ([14]; Rate 125 g/ha)
